We go through one compound from patent US11351142B2, “Composition and method for treating neuronal ceroid lipofuscinosis” (Rush University Medical Center, priority 2012, dated 2022).

The subject of assay [1] is Cln3 mRNA. Kind of assay: Cln3 mRNA expression by semi-quantitative RT-PCR in mouse primary astrocytes. The format is cell-based. The settings on record: 25 μM gemfibrozil, 2, 6, 12, and 24 hrs. The protocol:
Astroglia were isolated from mixed glial cultures as described (17,18) according to the procedure of Giulian and Baker (19). Briefly, on day 9, the mixed glial cultures were washed three times with Dulbecco's modified Eagle's medium/F-12 and subjected to shaking at 240 rpm for 2 h at 37° C. on a rotary shaker to remove microglia. After 2 days, the shaking was repeated for 24 h for the removal of oligodendroglia and to ensure the complete removal of all nonastroglial cells. The attached cells were seeded onto new plates for further studies. Total RNA was isolated from mouse primary astrocytes and human primary astrocytes using RNA-Easy Qiagen (Valencia, Calif.) kit following manufactures protocol. Semi-quantitative RT-PCR was carried out as described earlier (24) using oligo (dT) 12-18 as primer and moloney murine leukemia virus reverse transcriptase (MMLV-RT, Invitrogen) in a 20 μl reaction mixture. The resulting cDNA was appropriately amplified using Promega Master Mix (Madison, Wis.) and the following primers (Invitrogen) for murine genes: […]

For assay [2], the system named is TPP1. In words: Western blot and densitometric analysis of TPP1 in mouse primary astrocytes. The format is cell-based. The protocol: Astroglia were isolated from mixed glial cultures as described (17,18) according to the procedure of Giulian and Baker (19). Briefly, on day 9, the mixed glial cultures were washed three times with Dulbecco's modified Eagle's medium/F-12 and subjected to shaking at 240 rpm for 2 h at 37° C. on a rotary shaker to remove microglia. After 2 days, the shaking was repeated for 24 h for the removal of oligodendroglia and to ensure the complete removal of all nonastroglial cells. The attached cells were seeded onto new plates for further studies.
Western blotting was conducted as described earlier (27,28) with modifications. Briefly, cells were scraped in double-distilled H20 and sodium dodecyl sulfate (SDS), electrophoresed on NuPAGE® Novex® 4-12% Bis-Tris gels (Invitrogen) and proteins transferred onto a nitrocellulose membrane (Bio-Rad) using the Thermo-Pierce Fast Semi-Dry Blotter. The membrane was then washed for 15 min in TBS plus Tween 20 (TBST) and blocked for 1 hr in TBST containing BSA. Next, membranes were incubated overnight at 4° C. under shaking conditions with the following 1° antibodies; TPP1 (1:250, Santa Cruz), β-actin (1:800; Abcam, Cambridge, Mass. The next day, membranes were washed in TBST for 1 hr, incubated in 2° antibodies against 1° antibody hosts (all 1:10,000; Jackson ImmunoResearch) for 1 hr at room temperature, washed for one more hour and visualized under the Odyssey® Infrared Imaging System (Li-COR, Lincoln, Nebr.).
Protein blots were analyzed using ImageJ (NIH, Bethesda, Md.) and bands were normalized to their respective β-actin loading controls. Data are representative of the average fold change with respect to control for three independent experiments.

Assay [3] relates to TPP1. In words: TPP1 activity assay on cell extracts of treated mouse brain cells. It is filed as cell-based. The note with it: WT astrocytes; 25 μM gemfibrozil and 10 μM fenofibrate, 24 hrs. The protocol: TPP-I activity was assayed in 96-well format plates using the following modification of the method described by Vines and Warburton (6). Briefly, samples and substrate (40 μL) were mixed in individual wells of polystyrene 96-well plate (Nalge Nunc International). […] A3401; Sigma; diluted freshly from a 25 mmol/L stock solution in dimethyl sulfoxide stored at -20° C.) in 0.15 mol/L NaCl-1 g/L Triton X-100-0.1 mol/L sodium acetate, adjusted to pH 4.0 at 20° C. Plates were centrifuged briefly to dispel bubbles and placed in a 37° C. Plates were mixed for 10 s before each reading. The plates were read from the bottom using 360/20 nm excitation and 460/25 nm emission filters. Prior to the assay, the optimum substrate concentration and total protein in cell extract that can used to get best results were determined in the same manner described above, using different substrate concentrations and protein concentrations in the cell extract.

In assay [4] the test system is Cln2 mRNA. Kind of assay: Cln2 mRNA expression by RT-PCR and real-time PCR in human primary astrocytes. It is filed as cell-based.
Experimental: Primary human astroglia were prepared as described (20,21). […] Briefly, 11- to 17-week-old fetal brains obtained from the Human Embryology Laboratory (University of Washington, Seattle, Wash., USA) were dissociated by trituration and trypsinization. On 9th day, these mixed glial cultures were placed on a rotary shaker at 240 rpm at 37° C. for 2 h to remove loosely attached microglia. On 11th day, the flasks were shaken again at 190 rpm at 37° C. for 18 h to remove oligodendroglia. The attached cells remaining were primarily astrocytes. These cells were trypsinized and subcultured in complete media at 37° C. with 5% CO2 in air to yield more viable and healthy cells. […] Semi-quantitative RT-PCR was carried out as described earlier (24) using oligo (dT) 12-18 as primer and moloney murine leukemia virus reverse transcriptase (MMLV-RT, Invitrogen) in a 20 μl reaction mixture. The resulting cDNA was appropriately amplified using Promega Master Mix (Madison, Wis.) and the following primers (Invitrogen) for murine genes: The mRNA quantification was performed using the ABI-Prism7700 sequence detection system (Applied Biosystems, Foster City, Calif.) using iTaq™ Fast Supermix With ROX (Bio-Rad, Hercules, Calif.) and the following 6-FAM/ZEN/IBFQ-labeled primers for murine genes: Cln2 and Gapdh (Integrated DNA Technologies Coralville, Iowa). […]
Assay [5] concerns TPP1. Kind of assay: TPP1 immunofluorescence of brain sections after oral gemfibrozil in WT, PPARα−/− and PPARβ−/− mice. The format is in vivo, mouse. The note with it: oral 7.5 mg/kg body wt/day, 21 days. The source says:
After 21 days of treatment, mice were sacrificed and their brains fixed, embedded, and processed. Sections were made from different brain regions and for immunofluorescence staining on fresh frozen sections, anti-mouse TPP1 (1:200), goat anti mouse GFAP (1:100) were used. The samples were mounted and observed under Olympus BX41 fluorescence microscope (26).
Once we confirmed the involvement of PPARα in the fibrate mediated upregulation of TPP1 protein, we further checked whether the same results could be replicated in in vivo settings. WT, PPARα^−/− and PPARβ^−/− mice from same background were treated orally for 21 days with 7.5 mg/kg body wt/day gemfibrozil dissolved in 0.1% methylcellulose, which was also used as vehicle. At the end of the treatment, the mice were killed and different regions of their brain, viz. Substantia nigra pars compacta, cortex, hippocampus, and dentate gyrus were sectioned, and immunofluorescence was performed for the presence of TPP1.

The subject of assay [6] is lysosome-associated membrane protein 2 (LAMP2). In words: Double-labeling for LAMP2 and β-tubulin in human neurons. It is filed as cell-based. The note with it: 25 μM gemfibrozil and 10 μM fenofibrate, 24 hours. The source says:
DAPI was used to visualize nuclei. Results represent 3 independent experiments.

Assay [7] has as its system CLN2 knockdown mouse astrocytes. Kind of assay: Peroxide assay in CLN2 knockdown mouse astrocytes. The note with it: astrocytes transfected with CLN2 siRNA 36 hrs, gemfibrozil (25 μM) 6 hrs. It is filed as cell-based. The protocol:
Mouse astrocytes were transfected with CLN2 siRNA (1.0 μg) for 36 hrs and treated with gemfibrozil (25 μM) for 6 hrs. Cells were then harvested and subjected to peroxide assay.

Regarding `Cc1ccc(C)c(OCCCC(C)(C)C(=O)O)c1` [gemfibrozil], in assay [1], the “Cln3 mRNA expression” value is given as “increase within 12 to 24 h”. The “TPP1 levels (immunoblot, densitometric analysis)” value in assay [2] (PPARα−/− astrocytes, 24 hrs) is reported as “no significant increase”. Further, in assay [2] (RXRα siRNA transfected astrocytes, gemfibrozil (10 μM), RA (0.5 μM) alone and in combination), the “TPP1 levels (Western blot, densitometric analysis)” value is “almost no enhancement”. Moreover, the TPP1 enzymatic activity entry in assay [3] is reported as “drastically increased”. Moreover, the “increase in Cln2 mRNA levels, maximum of time course” value in assay [4] (25 μM gemfibrozil, at 12 hrs) is given as approximately 10 fold. Moreover, the “increase in Cln2 mRNA levels, maximum of dose response” value in assay [4] (25 uM gemfibrozil, different concentrations for 12 hrs) is listed as approximately 15 fold. Further, in assay [5] (PPARβ−/− mice), the “TPP1 in the dentate gyrus and CA1 region of the hippocampus (mostly non-neuronal cells)” value was “increased”; the “level of TPP1 in GFAP-positive astrocytes and tyrosine hydroxylase-positive neurons in the substantia nigra” value was “increased”; the “level of TPP1 in GFAP-positive cortical astrocytes and NeuN-positive cortical neurons” value was “markedly increased”. For the same compound, in assay [5] (WT mice), the “TPP1 in the dentate gyrus and CA1 region of the hippocampus (mostly non-neuronal cells)” value was “increased”; the “level of TPP1 in GFAP-positive astrocytes and tyrosine hydroxylase-positive neurons in the substantia nigra” value is reported as “increased”; the “level of TPP1 in GFAP-positive cortical astrocytes and NeuN-positive cortical neurons” value is given as “markedly increased”. Also, in assay [6], the “LAMP2 (double-labeling)” value is on record as “upregulation”. For the same compound, the peroxide production result in assay [7] is recorded as “reduces peroxide production”.
